In patent publication US7125847B1, “Mechanically activated channel blocker” (priority 2000, dated 2006):
Values joined by “and” are separate entries in the source; they are usually repeats but may differ in a detail not shown here. Identical values can stand only once.

Tests used:
[1] = test system: stretch-activated channels (SACs); assay: Outside-out patch clamp of stretch-activated channels in adult rat astrocytes; format: cell-based
Procedure: This embodiment describes the effect of the peptide GsMTx-4 variant (SEQ ID NO:1) on SACs. To illustrate this, adult rat astrocytes which are known to have SACs, were used. Adult rat astrocytes were cultured according to standard methods. Briefly, activated adult astrocytes isolated from gelatin-sponge implants from adult Sprague-Dawley rat brains obtained according to the method of Langan et al. (1995, Glia, 14:174–184) were used at passage numbers 2–4. Astrocytes were maintained in DMEM, 10% fetal bovine serum and 1% Penicillin/Streptomycin and were used in experiments between 2 and 5 days after passage. Cells between passage 4 and 35 expressed SACs with the same properties Both stellate process bearing cells and flat polygonal (fibroblast-like) cells were used.
The cultured astrocytes were used for single channel and whole cell recorndings. For single channel patch clamp, patch voltage was controlled by an Axopatch 200B (Axon Instruments, Calif.) and currents were recorded directly onto computer disk via a Labmaster DMA Ver. B (Scientific Instruments, Calif.) board controlled by pClamp6-Clampex acquisition software (Axon Instruments, California). Currents were sampled at 10 KHz and low-pass filtered at 2 KHz through the 4 pole Bessel filter on the Axopatch 200B. Experimental voltage protocols were controlled by pClamp6-Clampex. All potentials are defined with respect to the extracellular surface.
Electrodes were pulled on a Model PC-84 pipette puller (Brown-Flaming Instruments, Calif.), painted with Sylgard 184 (Dow Corning Corp. Midland Mich.) and fire polished. Electrodes were filled with KCl saline (KCl 140 mM, EGTA 5 mM, MgSO4 2 mM, Hepes 10 mM, pH 7.3) and had resistances ranging from 3–8 MWBath saline consisted of NaCl 140 mM, KCl 5 mM, MgSO4 1 mM, CaCl2 1 mM, glucose 6 mM and Hepes 10 mM, pH 7.3.
Pressure and suction were applied to the pipette by a pressure clamp. Pressure values represent pressure in the pipette, i.e., the intracellular side of the membrane in outside-out patches. Suction applied to a cell-attached patch has the same sign as pressure applied to an outside-out patch. The rise time of pressure changes at the tip were determined by monitoring the rate of current change when pressure steps were applied to an electrode containing 150 mM KCl solution and placed in a water bath. The t10-90 was ˜5 ms as determined by exponential fits to the current decay. Perfusion of toxin samples was performed by a pressurized bath perfusion system BPS-8 (ALA scientific instruments, NY) with 8 separate channels.
Off-line data analysis was performed with pClamp6 analysis software and Origin 5.0. Maximal unitary channel currents were determined via Guassian fits to the peaks of all points amplitude histograms generated from records containing 1–3 channels. […] Some of these records were analyzed by determining all of the step-like changes in current during the pressure application and selecting the average maximal current level as the unitary current. The data analyzed by this method was in good agreement with the unitary current levels determined by analysis of all points amplitude histograms from single channel patches.
The outside out patches from adult astrocytes as described above were used for testing the HPLC fractions obtained in Example 1. The HPLC fractions were lyophilized, redissolved at a 1:1000 dilution and perfused onto outside out patches. […] The fraction containing the single peak in FIG. 1D was then tested for activity against SACs. […] The patch was held at −50 mV, and the pressure pulse is shown above the records.
The entire experiment is comprised of 60 pressure steps: steps 1–20 occur before GsMTx-4 application; steps 21–38 while GsMTx-4 is being perfused; steps 39–60 occur during washout. Each 500 ms pressure step was separated by 1.5 seconds at 0 pressure.
The association rate of the toxin was determined by applying GsMTx-4 to an outside-out patch while the channels were activated by stretch (FIG. 5). […]

[2] = test system: swelling-activated currents in ventricular myocytes; assay: Perforated patch whole-cell swelling-activated currents in ventricular myocytes from rabbits with aortic regurgitation-induced CHF; format: cell-based, rabbit; conditions: 0.4 μM
Procedure: Ventricular myocytes were freshly isolated from New Zealand white rabbits with aortic regurgitation induced congestive heart failure using a collagenase-pronase dispersion method (Clemo et al., 1997, supra). Cells were stored in a modified Kraft-Bruhe solution (KOH 132 mM, glutamic acid 120 mM, KCl 2.5 mM, KH2PO4 10 mM, MgSO4 1.8 mM, K2EGTA 0.5 mM, glucose 11 mM, taurine 10 mM, Hepes 10 mM, pH 7.2). Myocytes were used within 6 h of harvesting and only quiescent cells with no evidence of membrane blebbing were selected for study.
Swelling activated currents were measured in myocytes according to the method of Clemo & Baumgarten (1997). Briefly, electrodes were pulled from glass capillaries to give a final tip diameter of […] and a resistance of 0.5–1 MW when filled with the standard electrode filling solution (K aspartate 120 mM, KCl 10 mM, NaCl 10 mM, MgSO4 3 mM, Hepes 10 mM, pH 7.1). Whole cell currents were recorded using an Axoclamp 200A. Pulse and ramp protocols, voltage clamp data acquisition and off-line data analysis were controlled with software written in ASYST. Both step and ramp voltage clamp protocols were applied with a holding potential of −80 mV. Currents were digitized at 1 KHz and low-pass filtered at 200 Hz. Whole cell currents were recorded using the amphotericin perforated patch technique. Solution changes were performed by bath perfusion that was completed within 10 s. The standard bath solution contained (NaCl 65 mM, KCl 5 mM, CaSO4 2.5 mM, MgSO4 0.5 mM, glucose 10 mM and Hepes 10 mM pH 7.2, and 130 mM (IT) or 283 mM (1.5 T) mannitol to control the osmolarity. Isotonic osmolarity was taken as 296 mosm (IT) and 444 mosm for hypertonic solution (1.5 T).
The myocytes were exposed to 1.0 T and 1.5 T solution in the absence (1.0 TC, 1.5 TC) and presence (1.0 TTX, 1.5 TTX) of 0.4 μM GsMTx-4. […] However, whole cell current was unaffected by GsMTx-4 when swelling-activated currents were inactivated by 1.5 T hypertonic saline (FIG. 9Bd). […] The remaining inward current is largely. ICI,swell. […]

Q: For “GCLEFWWKCNPNDDKCCRPKLKCSKLFKLCNFSFGK [GsMTx-4]”, which “time constant of current decay during GsMTx-4 application (association)” value ([1]; 5 μM toxin, outside-out patches held at −50 mV, single exponential fit) is on record?
A: 594 ± 10 ms

Q: What about the “average SAC current when GsMTx-4 was applied” value ([1]; 7 patches, −50 mV, 2.04±0.14 pA prior to application) of the same sequence?
A: 0.17±0.02 pA

Q: And the “block of SACs” value ([1]; HPLC fractions at 1:1000 dilution relative to whole venom, outside-out patches)?
A: the block was complete

Q: What about the association constant ka ([1]; assuming 1:1 binding, from time constant at 5 μM) of the same sequence?
A: 340000 M⁻¹ s⁻¹ and 330000 M⁻¹ s⁻¹

Q: And the “ratio of blocked to unblocked current I/I0” value ([1]; data of FIG. 6)?
A: 0.083

Q: What about the dissociation constant kd ([1]; from recovery kinetics on washout) of the same sequence?
A: 0.21 s⁻¹

Q: And the “average SAC current after GsMTx-4 washout” value ([1]; last 8 pressure steps, 10 seconds after washout)?
A: 2.28±0.17 pA

Q: And the “calculated equilibrium constant KD=kd/ka” value ([1]; ratio of rate constants)?
A: 631 ± 240 nM

Q: And the Kd ([1]; single binding site model, read-out: binding constant Kd from I/I0)?
A: 415 nM

Q: And the “effect on inward ICir,swell” value ([2]; 1.0 T)?
A: significant reduction

Q: And the “effect on outward ICI,swell” value ([2]; 1.0 T)?
A: no effect

Q: And the “effect on whole cell current when swelling-activated currents inactivated” value ([2]; 1.5 T hypertonic saline)?
A: unaffected
